Values quoted from earlier work in patent US20190282525A1, “TIOPRONIN ORAL COMPOSITION” (CRONUS RESEARCH LABS PRIVATE LIMITED, priority 2018, published 2019).

Conditions: 'might be expected'

CC(S)C(=O)NCC(=O)O (stereo not drawn) [tiopronin, α-mercaptopropionylglycine]
reduction in urinary cystine (tiopronin dosage of 1 g/day): 250 to 350 mg/day | decline in urinary cystine (tiopronin dosage of 2 g/day): approximately 500 mg/day
